Assay results published in ChEMBL document CHEMBL2021890, “A new class of prolylcarboxypeptidase inhibitors, part 1: discovery and evaluation” (Bioorg Med Chem Lett, 2012).

Tests used:
[1] = target: Mus musculus; assay: Ex-vivo inhibition of PrCP in heat inactivated 100% plasma of po dosed mouse by FRET analysis; assay type: functional, organism-based
[2] = target: Mus musculus; assay: Ex-vivo inhibition of PrCP in heat inactivated 25% plasma of po dosed mouse by FRET analysis; assay type: functional, organism-based
[3] = Drug uptake in C57 mouse plasma at 100 mg/kg, po after 20 hrs by LC/MS analysis; assay type: ADME, organism-based; set-up: dose 100 mg/kg, route oral
[4] = tested on: Mus musculus; assay: Plasma shift, ratio of Ki for PrCP in heat inactivated 100% plasma of po dosed mouse to Ki for po dosed mouse PrCP in the absence of plasma; assay type: functional
[5] = tested on: Mus musculus; assay: Ex-vivo inhibition of PrCP in heat inactivated 100% plasma of C57 mouse assessed as target engagement at 100 mg/kg, po after 20 hrs by FRET analysis; assay type: functional
[6] = Ratio of apparent permeability from basolateral to apical side over apical to basolateral side in […] LLC cells expressing human MDR1 at 5 uM; assay type: ADME, cell-based
[7] = target: Mus musculus; assay: Ex-vivo inhibition of po dosed mouse PrCP in the absence of plasma by FRET analysis; assay type: functional, organism-based
[8] = Ratio of apparent permeability from basolateral to apical side over apical to basolateral side in […] LLC cells expressing […] MDR1a at 5 uM; assay type: ADME, cell-based
[9] = Drug uptake in C57 mouse brain at 100 mg/kg, po after 20 hrs by LC/MS analysis; assay type: ADME, organism-based; set-up: dose 100 mg/kg, route oral; details: read-out: Drug uptake
[10] = tested on: Mus musculus; assay: Ex-vivo inhibition of PrCP in heat inactivated 100% plasma of C57 mouse assessed as target engagement at 100 mg/kg, po after 20 hrs calculated as [cmpd]plasma/([cmpd]plasma + Ki (heat inactivated plasma))x100; assay type: functional
[11] = Ratio of drug level in brain to plasma in C57 mouse at 100 mg/kg, po after 20 hrs by LC/MS analysis; assay type: ADME, organism-based; set-up: dose 100 mg/kg, route oral; details: read-out: BPR
[12] = Apparent permeability across pig LLC-PK1 cells at 5 uM; assay type: ADME, cell-based, Sus scrofa
[13] = target: T1, Lysosomal Pro-X carboxypeptidase (Mus musculus, UniProt Q7TMR0); assay: Inhibition of mouse PrCP
T1 sequence (Q7TMR0 whole entry): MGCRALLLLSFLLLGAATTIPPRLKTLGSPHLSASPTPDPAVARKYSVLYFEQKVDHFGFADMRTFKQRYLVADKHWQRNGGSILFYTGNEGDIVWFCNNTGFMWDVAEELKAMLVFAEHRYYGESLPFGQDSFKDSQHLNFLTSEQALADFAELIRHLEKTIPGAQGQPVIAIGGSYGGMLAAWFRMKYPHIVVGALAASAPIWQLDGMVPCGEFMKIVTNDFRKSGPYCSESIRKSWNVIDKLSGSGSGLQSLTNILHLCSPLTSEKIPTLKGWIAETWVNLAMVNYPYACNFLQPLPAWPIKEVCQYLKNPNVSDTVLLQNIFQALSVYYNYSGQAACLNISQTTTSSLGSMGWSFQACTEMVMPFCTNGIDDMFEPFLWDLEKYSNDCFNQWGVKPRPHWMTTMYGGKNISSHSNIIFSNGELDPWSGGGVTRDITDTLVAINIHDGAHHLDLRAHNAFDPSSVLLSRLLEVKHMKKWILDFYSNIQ

[14] = Oral bioavailability in mouse at 1 mg/kg; assay type: ADME, organism-based; details: in vivo
[15] = tested on: Mus musculus; assay: Ex-vivo inhibition of PrCP in heat inactivated 100% plasma of C57 mouse assessed as target engagement at 30 mg/kg, po after 20 hrs by FRET analysis; assay type: functional
[16] = Apparent permeability across pig LLC-PK1 cells at 1 uM; assay type: ADME, cell-based, Sus scrofa
[17] = tested on: Mus musculus; assay: Ex-vivo inhibition of PrCP in heat inactivated 100% plasma of C57 mouse assessed as target engagement at 30 mg/kg, po after 20 hrs calculated as [cmpd]plasma/([cmpd]plasma + Ki (heat inactivated plasma))x100; assay type: functional
[18] = Volume of distribution in mouse at 0.5 mg/kg, iv and 1 mg/kg, po; assay type: ADME, organism-based; details: in vivo
[19] = Plasma protein binding in 10% mouse plasma assessed as percentage unbound; assay type: ADME, cell-free
[20] = Drug uptake in C57 mouse brain at 30 mg/kg, po after 20 hrs by LC/MS analysis; assay type: ADME, organism-based; set-up: dose 30 mg/kg, route oral; details: read-out: Drug uptake
[21] = Ratio of drug level in brain to plasma in C57 mouse at 30 mg/kg, po after 20 hrs by LC/MS analysis; assay type: ADME, organism-based; set-up: dose 30 mg/kg, route oral; details: read-out: BPR
[22] = Metabolic stability in mouse liver microsomes after 30 mins by LC/MS analysis; assay type: ADME, Microsome; details: read-out: Stability
[23] = Drug uptake in C57 mouse plasma at 30 mg/kg, po after 20 hrs by LC/MS analysis; assay type: ADME, organism-based; set-up: dose 30 mg/kg, route oral
[24] = tested on: Mus musculus; assay: Dose normalized AUC in mouse at 1 mg/kg, po; assay type: ADME, organism-based; set-up: dose 1 mg/kg, route oral; details: in vivo
[25] = Half life in mouse at 0.5 mg/kg, iv and 1 mg/kg, po; assay type: ADME, organism-based; details: in vivo
[26] = Plasma protein binding in 10% human plasma assessed as percentage unbound; assay type: ADME, cell-free
[27] = Clearance in mouse at 0.5 mg/kg, iv and 1 mg/kg, po; assay type: ADME, organism-based; details: in vivo
[28] = Metabolic stability in human liver microsomes after 30 mins by LC/MS analysis; assay type: ADME, Microsome; details: read-out: Stability
[29] = tested on: Mus musculus; assay: Ex-vivo inhibition of PrCP in heat inactivated 100% plasma of C57 mouse assessed as target engagement at 80 mg/kg, po after 20 hrs by FRET analysis; assay type: functional
[30] = Ratio of drug level in brain to plasma in C57 mouse at 80 mg/kg, po after 20 hrs by LC/MS analysis; assay type: ADME, organism-based; set-up: dose 80 mg/kg, route oral; details: read-out: BPR
[31] = Drug uptake in C57 mouse brain at 80 mg/kg, po after 20 hrs by LC/MS analysis; assay type: ADME, organism-based; set-up: dose 80 mg/kg, route oral; details: read-out: Drug uptake
[32] = Drug uptake in C57 mouse plasma at 80 mg/kg, po after 20 hrs by LC/MS analysis; assay type: ADME, organism-based; set-up: dose 80 mg/kg, route oral
[33] = tested on: Mus musculus; assay: Ex-vivo inhibition of PrCP in heat inactivated 100% plasma of C57 mouse assessed as target engagement at 80 mg/kg, po after 20 hrs calculated as [cmpd]plasma/([cmpd]plasma + Ki (heat inactivated plasma))x100; assay type: functional
[34] = tested on: Mus musculus; assay: Ex-vivo inhibition of PrCP in heat inactivated 100% plasma of C57 mouse assessed as target engagement at 10 mg/kg, po after 20 hrs calculated as [cmpd]plasma/([cmpd]plasma + Ki (heat inactivated plasma))x100; assay type: functional
[35] = Drug uptake in C57 mouse plasma at 10 mg/kg, po after 20 hrs by LC/MS analysis; assay type: ADME, organism-based; set-up: dose 10 mg/kg, route oral
[36] = Drug uptake in C57 mouse brain at 10 mg/kg, po after 20 hrs by LC/MS analysis; assay type: ADME, organism-based; set-up: dose 10 mg/kg, route oral; details: read-out: Drug uptake
[37] = Ratio of drug level in brain to plasma in C57 mouse at 10 mg/kg, po after 20 hrs by LC/MS analysis; assay type: ADME, organism-based; set-up: dose 10 mg/kg, route oral; details: read-out: BPR
[38] = tested on: Mus musculus; assay: Ex-vivo inhibition of PrCP in heat inactivated 100% plasma of C57 mouse assessed as target engagement at 10 mg/kg, po after 20 hrs by FRET analysis; assay type: functional
[39] = Volume of distribution in mouse at 2 mg/kg, iv and 10 mg/kg, po; assay type: ADME, organism-based; details: in vivo
[40] = Clearance in mouse at 2 mg/kg, iv and 10 mg/kg, po; assay type: ADME, organism-based; details: in vivo
[41] = Half life in mouse at 2 mg/kg, iv and 10 mg/kg, po; assay type: ADME, organism-based; details: in vivo
[42] = Oral bioavailability in mouse at 10 mg/kg; assay type: ADME, organism-based; details: in vivo
[43] = tested on: Mus musculus; assay: Dose normalized AUC in mouse at 10 mg/kg, po; assay type: ADME, organism-based; set-up: dose 10 mg/kg, route oral; details: in vivo

For `C[C@@H](c1ccc(-c2ccccc2)cc1)[C@H](NC(=O)C(C)(C)N)C(=O)N1CCC[C@H]1c1nc2cc(Cl)c(Cl)cc2[nH]1`, the Ki [1] was 16.3 nM, the Ki [2] was 4.6 nM and the concentration at 20 h [3] was 3120 nM. The “Ratio Ki” value [4] was 23.3, the inhibition in vivo at 100 mg/kg [5] was 97.2% and the Ratio [6] was 8. It also gave a Ki [7] of 0.7 nM, a Ratio [8] of 4.2 and a concentration at 20 h [9] of 757 nM. For the same molecule, the inhibition in vivo at 100 mg/kg [10] was 99.5%, the Kp at 20 h [11] was 0.24 and the Papp at 5 µM [12] was 2.3 ×10⁻⁶ cm/s.
In the case of `Cc1cc(C2CCN(C(=O)[C@@H]3CN(C(C)(C)C)C[C@H]3c3ccc(F)cc3F)CC2)n(-c2cc(Cl)ccc2Cl)n1`, the IC50 [13] is reported as 0.4 nM, the Ki [1] is reported as 0.9 nM and the bioavailability [14] is reported as 31%. For the same molecule, the Ki [2] was 0.5 nM, the inhibition in vivo at 30 mg/kg [15] was 97.7% and the Papp at 1 µM [16] was 26.9 ×10⁻⁶ cm/s. It also gave an inhibition in vivo at 30 mg/kg [17] of 99.8%, a Vd [18] of 13 L/kg and a fraction unbound [19] of 0.17. For the same molecule, the concentration at 20 h [20] was 698 nM, the Kp at 20 h [21] was 1.35 and the remaining at 0.5 h [22] was 43%. It also gave a concentration at 20 h [23] of 547 nM, an AUC/dose [24] of 0.19 µM·kg·h/mg and a Ki [7] of 0.4 nM. It also gave a half-life [25] of 2.9 h, a fraction unbound [26] of 0.11 and a clearance [27] of 48 mL/min/kg. The remaining at 0.5 h [28] was 30%.
Molecule `Cc1cc(C2CCN(C(=O)[C@@H]3CN(C(C)(C)C)C[C@H]3c3ccc(F)cc3F)CC2)n(-c2ccc(F)c(F)c2)n1` has an IC50 [13] of 9.1 nM, an inhibition in vivo at 80 mg/kg [29] of 99.4% and a Ki [1] of 18.3 nM. For the same molecule, the bioavailability [14] was 46%, the Ki [2] was 9.3 nM and the Papp at 1 µM [16] was 28 ×10⁻⁶ cm/s. It also gave a Kp at 20 h [30] of 0.63, a Vd [18] of 13 L/kg and a fraction unbound [19] of 0.16. For the same molecule, the remaining at 0.5 h [22] was 52%, the concentration at 20 h [31] was 1180 nM and the AUC/dose [24] was 0.2 µM·kg·h/mg. It also gave a Ki [7] of 6.4 nM, a half-life [25] of 1.9 h and a concentration at 20 h [32] of 1910 nM. The fraction unbound [26] was 0.25, the clearance [27] was 71 mL/min/kg and the remaining at 0.5 h [28] was 39%. The inhibition in vivo at 80 mg/kg [33] was 99.1%.
Molecule `CC(C)(C)N1C[C@@H](C(=O)N2CCC(c3ccnn3-c3ccc(F)c(Cl)c3)CC2)[C@H](c2ccc(F)cc2F)C1` has an IC50 [13] of 0.3 nM, a Ki [1] of 1.4 nM and a bioavailability [14] of 18%. The Ki [2] was 0.7 nM, the inhibition in vivo at 10 mg/kg [34] was 99.3% and the concentration at 20 h [3] was 1800 nM. It also gave a Papp at 1 µM [16] of 28.8 ×10⁻⁶ cm/s, a Vd [18] of 22 L/kg and a fraction unbound [19] of 0.16. For the same molecule, the inhibition in vivo at 100 mg/kg [5] was 99.9%, the remaining at 0.5 h [22] was 3% and the concentration at 20 h [35] was 196 nM. It also gave a concentration at 20 h [36] of 21 nM, an AUC/dose [24] of 0.05 µM·kg·h/mg and a Ki [7] of 0.5 nM. The half-life [25] was 3.1 h, the fraction unbound [26] was 0.18 and the Kp at 20 h [37] was 0.11. The concentration at 20 h [9] was 801 nM, the clearance [27] was 121 mL/min/kg and the inhibition in vivo at 100 mg/kg [10] was 99.9%. For the same molecule, the Kp at 20 h [11] was 0.46, the remaining at 0.5 h [28] was 4% and the inhibition in vivo at 10 mg/kg [38] was 99.5%.
`Cc1nc(C2CCN(C(=O)[C@@H]3CN(C(C)(C)C)C[C@H]3c3ccc(F)cc3F)CC2)n(-c2ccc(Cl)c(C)c2)n1` gave an IC50 [13] of 10 nM, a Ki [1] of 1.4 nM and a Ki [2] of 1.1 nM. It also gave a Vd [39] of 17 L/kg, a clearance [40] of 128 mL/min/kg and a fraction unbound [19] of 0.13. The half-life [41] was 1.8 h, the remaining at 0.5 h [22] was 22% and the bioavailability [42] was 20%. It also gave a Ki [7] of 1 nM, a fraction unbound [26] of 0.16 and a remaining at 0.5 h [28] of 11%. The AUC/dose [43] was 0.05 µM·kg·h/mg.
